Data on 16 compounds can be found in ChEMBL document CHEMBL5321237 (Eur J Med Chem, 2023).

Values after ≈ are worked out from the molar mass of the structure shown. Active and inactive are the calls of the source.

The target of data set [1] is T1, Macrophage colony-stimulating factor 1 receptor (Homo sapiens, UniProt P07333). The experiment in a line: Inhibition of CSF1R (unknown origin) using FRET-peptide as substrate incubated in presence of ATP by FRET based Z-LYTE assay.
The target of data set [2] is T2, Macrophage colony-stimulating factor 1 receptor (Mus musculus, UniProt P09581).
T2 sequence (P09581 whole entry): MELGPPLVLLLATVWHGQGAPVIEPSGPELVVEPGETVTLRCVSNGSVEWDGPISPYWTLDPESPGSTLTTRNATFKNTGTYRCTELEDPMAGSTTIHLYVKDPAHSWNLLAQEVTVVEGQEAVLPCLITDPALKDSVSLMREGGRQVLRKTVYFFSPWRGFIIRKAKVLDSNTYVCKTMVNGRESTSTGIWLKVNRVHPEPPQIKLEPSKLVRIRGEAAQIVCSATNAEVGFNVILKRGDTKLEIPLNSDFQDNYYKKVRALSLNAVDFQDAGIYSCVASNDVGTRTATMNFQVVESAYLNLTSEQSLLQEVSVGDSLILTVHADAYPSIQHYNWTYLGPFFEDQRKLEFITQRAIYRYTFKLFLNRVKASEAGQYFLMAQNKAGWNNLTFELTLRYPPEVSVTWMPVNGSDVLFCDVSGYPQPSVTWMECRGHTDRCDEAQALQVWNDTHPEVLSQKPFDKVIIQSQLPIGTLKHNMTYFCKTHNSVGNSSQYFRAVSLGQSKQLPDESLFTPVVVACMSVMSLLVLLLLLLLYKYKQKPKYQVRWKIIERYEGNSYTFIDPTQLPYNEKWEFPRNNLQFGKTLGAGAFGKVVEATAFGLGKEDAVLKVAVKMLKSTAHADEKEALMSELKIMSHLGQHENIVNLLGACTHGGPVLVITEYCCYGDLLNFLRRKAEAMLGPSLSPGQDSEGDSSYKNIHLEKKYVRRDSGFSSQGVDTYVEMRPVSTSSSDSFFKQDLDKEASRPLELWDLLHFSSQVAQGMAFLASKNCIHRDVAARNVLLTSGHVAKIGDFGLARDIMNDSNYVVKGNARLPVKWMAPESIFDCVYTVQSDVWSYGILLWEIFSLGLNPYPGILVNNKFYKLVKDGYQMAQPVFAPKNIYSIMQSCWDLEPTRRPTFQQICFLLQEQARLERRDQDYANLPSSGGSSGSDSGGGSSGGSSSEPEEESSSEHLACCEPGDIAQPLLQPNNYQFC
The data set can be described thus: Inhibition of CSF1-induced CSF1R signalling in mouse BMDM cells assessed as reduction in ERK1/2 phosphorylation preincubated for 30 mins followed by CSF1 addition and measured after 10 mins. In kind it is cell-based.

The nature of data set [3]: Kinetic aqueous solubility of compound at pH 7.4 at 500 uM incubated for 90 mins by spectrophotometry analysis. In kind it is physicochemical. To be noted: buffer, read-out: Kinetic_solubility.
The nature of data set [4]: Metabolic stability in human liver microsomes assessed as intrinsic clearance at 3 uM measured upto 50 mins by LC-MS analysis. In kind it is ADME, Microsome. In general terms: Liver microsomes are vesicles of endoplasmic reticulum, rich in cytochrome P450 enzymes.
Data set [5] concerns the target T3, Macrophage colony-stimulating factor 1 receptor (Mus musculus) (UniProt P09581).
T3 sequence (whole entry): T2 sequence (P09581 whole entry)
The experiment in a line: Inhibition of CSF1-induced CSF1R signalling in mouse BMDM cells assessed as reduction in ERK1/2 phosphorylation by measuring fold change preincubated for 30 mins followed by CSF1 addition and measured after 10 mins relative to pexidartinib. In kind it is cell-based. Particulars: time 40.0 min.

Data set [6] can be described thus: Metabolic stability in mouse liver microsomes assessed as intrinsic clearance at 3 uM measured upto 50 mins by LC-MS analysis. In kind it is ADME, Microsome.
Data set [7] can be described thus: Plasma protein binding in mouse assessed as bound fraction at 5 uM incubated for 6 hrs by equilibrium dialysis based LC-MS analysis. To be noted: read-out: PPB (converted). Type of data set: ADME, cell-free.
Data set [8] in a line: Stability in mouse plasma assessed as compound remaining at 5 uM incubated for 1 hr by LC-MS analysis. In kind it is ADME, cell-free. To be noted: read-out: Stability.
A short description of data set [9]: Microsomal stability mouse liver microsomes assessed as compound remaining at 5 uM incubated for 1 hr by LC-MS analysis. Type of data set: ADME, Microsome. To be noted: read-out: Stability.
The nature of data set [10]: Metabolic stability in cryopreserved pooled ICR/CD-1 mouse hepatocytes assessed as intrinsic clearance measured per 10^6 cells at 3 uM measured for 60 mins by LC-MS/MS analysis. In kind it is ADME, cell-based, Hepatocyte. Particulars: read-out: CLH.
Data set [11] in a line: Half life in C57BLKS mouse at 1 mg/kg, iv administered as cassette dose measured for 480 mins by LC-MS analysis. Type of data set: ADME, organism-based. To be noted: in vivo.
Data set [12] can be described thus: Clearance in C57BLKS mouse at 1 mg/kg, iv administered as cassette dose measured for 480 mins by LC-MS analysis. Type of data set: ADME, organism-based. To be noted: in vivo; for clearance: C57BLKS.
The nature of data set [13]: Observed volume of distribution at steady state in C57BLKS mouse at 1 mg/kg, iv administered as cassette dose measured for 480 mins by LC-MS analysis. In kind it is ADME, organism-based. To be noted: in vivo, read-out: Vdss.
Data set [14] is described as follows: Inhibition of […] induced osteoclast differentiation in human Osteoclast precursor cells assessed as suppression of osteoclast formation at 100 to 1000 nM incubated for over 7 days with media replacement for every 3 days by TRITC-phalloidin/Hoechst staining based microscopic analysis relative to control. In kind it is functional, Osteoclast precursor cell. To be noted: dose 100-1000 nM, time > 7 day.

Another data set has as its system BaF3. The data set can be described thus: Antiproliferative activity against BaF3 cells expressing human CSF1R assessed as suppression of cell proliferation incubated for 72 hrs by Cell Titer Glo assay. In kind it is functional, cell-based. Particulars: Mus musculus, BaF3, 72 h. In general terms: In ATP-based viability assays light output follows the ATP content of the culture.

Data set [15] deals with T1, Macrophage colony-stimulating factor 1 receptor. The data set can be described thus: Binding affinity to autoinhibited form of CSF1R (unknown origin) assessed as dissociation constant incubated for 1 hr by qPCR based Hill equation analysis.
For data set [16] the target is unchanged. The data set can be described thus: Binding affinity to non-autoinhibited form of CSF1R (unknown origin) assessed as dissociation constant incubated for 1 hr by qPCR based Hill equation analysis. A general note: In qPCR the cycle at which signal appears reflects the starting amount.
The target is the same in data set [17]. The experiment in a line: Selectivity index, ratio of Kd for non-autoinhibited form of CSF1R (unknown origin) to Kd for autoinhibited form of CSF1R (unknown origin).
In data set [18] the test system is Osteoclast precursor cell. Particulars: Homo sapiens, dose 100-1000 nM, time > 7.0 day.
The subject of data set [19] is Osteoclast precursor cell. Particulars: Homo sapiens, dose 10.0 nM, time > 7.0 day.
Data set [20] addresses Epidermal growth factor receptor (Homo sapiens, UniProt P00533). The data set can be described thus: Inhibition of EGFR (unknown origin) in presence of ATP.

T1 sequence (P07333 whole entry): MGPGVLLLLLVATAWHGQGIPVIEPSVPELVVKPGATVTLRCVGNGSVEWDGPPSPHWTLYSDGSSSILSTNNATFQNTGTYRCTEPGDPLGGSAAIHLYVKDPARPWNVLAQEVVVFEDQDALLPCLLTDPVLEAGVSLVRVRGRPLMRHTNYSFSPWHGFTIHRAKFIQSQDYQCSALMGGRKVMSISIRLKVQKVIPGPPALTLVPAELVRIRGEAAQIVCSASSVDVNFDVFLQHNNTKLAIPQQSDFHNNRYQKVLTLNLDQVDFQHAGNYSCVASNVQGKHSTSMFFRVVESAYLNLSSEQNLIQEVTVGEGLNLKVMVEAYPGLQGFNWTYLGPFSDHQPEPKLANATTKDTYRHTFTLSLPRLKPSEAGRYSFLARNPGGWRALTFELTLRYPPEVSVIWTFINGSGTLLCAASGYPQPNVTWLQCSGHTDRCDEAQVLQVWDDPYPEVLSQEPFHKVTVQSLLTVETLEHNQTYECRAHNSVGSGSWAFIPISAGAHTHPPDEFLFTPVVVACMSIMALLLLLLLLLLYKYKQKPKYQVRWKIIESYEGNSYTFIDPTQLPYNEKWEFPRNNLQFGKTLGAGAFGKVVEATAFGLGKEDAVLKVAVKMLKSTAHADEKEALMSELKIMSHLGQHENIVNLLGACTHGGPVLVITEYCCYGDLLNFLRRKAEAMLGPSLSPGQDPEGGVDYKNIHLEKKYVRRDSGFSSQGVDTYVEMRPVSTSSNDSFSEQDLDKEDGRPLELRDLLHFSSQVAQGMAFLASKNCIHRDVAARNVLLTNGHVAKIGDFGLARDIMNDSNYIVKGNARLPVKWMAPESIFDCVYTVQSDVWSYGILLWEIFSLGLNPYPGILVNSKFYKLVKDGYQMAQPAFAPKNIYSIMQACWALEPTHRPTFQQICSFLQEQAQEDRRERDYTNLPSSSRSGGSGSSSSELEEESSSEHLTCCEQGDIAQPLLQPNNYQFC
Epidermal growth factor receptor, sequence (P00533 whole entry): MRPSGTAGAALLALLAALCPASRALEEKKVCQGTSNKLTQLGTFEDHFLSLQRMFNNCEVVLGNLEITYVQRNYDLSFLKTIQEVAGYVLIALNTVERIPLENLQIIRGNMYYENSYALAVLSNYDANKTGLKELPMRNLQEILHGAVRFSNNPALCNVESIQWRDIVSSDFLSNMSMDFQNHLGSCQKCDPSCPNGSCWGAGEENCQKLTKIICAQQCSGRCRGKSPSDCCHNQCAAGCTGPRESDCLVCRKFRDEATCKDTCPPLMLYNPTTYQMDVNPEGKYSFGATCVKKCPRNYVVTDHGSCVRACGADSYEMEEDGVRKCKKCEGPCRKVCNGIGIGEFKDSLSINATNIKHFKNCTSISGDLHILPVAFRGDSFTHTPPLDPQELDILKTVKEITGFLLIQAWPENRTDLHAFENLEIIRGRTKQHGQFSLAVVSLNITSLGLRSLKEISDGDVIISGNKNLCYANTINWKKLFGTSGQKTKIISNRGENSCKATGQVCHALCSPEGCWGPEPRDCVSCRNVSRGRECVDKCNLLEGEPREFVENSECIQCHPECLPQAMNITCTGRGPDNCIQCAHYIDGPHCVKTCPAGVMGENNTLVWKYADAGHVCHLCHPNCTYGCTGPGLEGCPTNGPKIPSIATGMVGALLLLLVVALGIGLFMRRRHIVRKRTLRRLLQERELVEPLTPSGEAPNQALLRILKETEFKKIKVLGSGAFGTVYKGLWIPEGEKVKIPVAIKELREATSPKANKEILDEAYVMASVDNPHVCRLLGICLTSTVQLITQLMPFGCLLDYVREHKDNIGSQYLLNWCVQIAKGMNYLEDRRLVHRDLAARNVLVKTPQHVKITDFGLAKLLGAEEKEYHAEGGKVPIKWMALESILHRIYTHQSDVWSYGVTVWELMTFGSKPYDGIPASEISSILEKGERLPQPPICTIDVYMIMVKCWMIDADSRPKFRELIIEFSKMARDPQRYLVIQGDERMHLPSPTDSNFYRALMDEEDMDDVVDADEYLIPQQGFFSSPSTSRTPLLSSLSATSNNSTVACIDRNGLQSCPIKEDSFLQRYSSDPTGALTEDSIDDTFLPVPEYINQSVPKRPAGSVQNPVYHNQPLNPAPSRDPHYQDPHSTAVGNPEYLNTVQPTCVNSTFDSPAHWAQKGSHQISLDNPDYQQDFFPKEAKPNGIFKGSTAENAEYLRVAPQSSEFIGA

What is called IC50 is the concentration that gives 50% inhibition. For `CN(Cc1cccs1)c1ncnc2[nH]c(-c3ccc(CO)cc3)nc12`, the IC50 in data set [1] came out at 2.9 nM.

On to `CN(CC1CCCCO1)c1ncnc2[nH]c(-c3ccc(CO)cc3)nc12` (stereo unspecified), for which the half-maximal inhibitory concentration (IC50) in data set [2] is over 300 nM. For the same compound, the solubility kinetic at […], 500 µM in [3] came out at 9.2 µM (≈ 3.25 µg/mL). Moreover, in data set [4], the CLint amounted to 24.2 µL/min/mg.

One may read the half-life as the time needed for the level to fall by half in the phase considered. A word on the clearance: it is the volume of plasma or blood freed of the substance per unit of time. Read a high clearance as efficient removal. A word on the Kd: it is the equilibrium constant for the complex coming apart. On to `CN(CC1CCOCC1)c1ncnc2[nH]c(-c3ccc(CCO)cc3)nc12`, for which the IC50 in data set [2] was found to be 106 nM; in the data set on BaF3 it was 1500 nM. Also, in data set [5], the fold change (FC) was 0.7. Moreover, the solubility kinetic at […], 500 µM in [3] is 37.5 µM (≈ 13.8 µg/mL). Further, the CLint in data set [6] turned out to be 30.2 µL/min/mg; in data set [4], 14.7 µL/min/mg. Besides, the fraction unbound at 6 h, 5 µM in [7] was 0.366. Further, the remaining at 1 h, 5 µM in [8] is 97.9%; in data set [9], 97.2%. Besides, in data set [10], the hepatocyte CLint at 3 µM turned out to be 22 µL/min/1e6 cells. Also, the half-life in [11] is 24 min. The same compound showed a clearance in [12] of 317 mL/min/kg. For the same compound, the Vd in [13] worked out at 9 L/kg. The “inhibition (INH)” value in data set [14] came out at 100%. Besides, the Kd turned out to be 0.5 nM in [15] and 36 nM in data set [16]. The Ratio in [17] amounted to 72. Also, the inhibition result in [18] and in data set [19] was “Active” in each case.

In the case of `CN(CC1CCCCC1)c1ncnc2[nH]c(-c3ccc(CO)cc3)nc12`, the IC50 in data set [1] was found to be 1 nM; in data set [2], 100 nM. In addition, the fold change (FC) in data set [5] is 0.9. The solubility kinetic at […], 500 µM in data set [3] came out at 0.5 µM (≈ 0.176 µg/mL). Further, the CLint in [4] worked out at 22.3 µL/min/mg.

Take `CN(CC1CCN(Cc2ccccc2)CC1)c1ncnc2[nH]c(-c3ccc(CO)cc3)nc12`: in data set [2], the half-inhibitory concentration (IC50) is over 300 nM. For the same compound, the solubility kinetic at […], 500 µM in data set [3] turned out to be 33.5 µM (≈ 14.8 µg/mL). Also, the CLint in data set [4] is 22.1 µL/min/mg.

As for `FC(F)(F)c1ccc(CNc2ccc(Cc3c[nH]c4ncc(Cl)cc34)cn2)cn1` [PEXIDARTINIB], the IC50 in data set [2] came to 100 nM; in the data set with BaF3 it was 60 nM. Also, in [3], the solubility kinetic at […], 500 µM was found to be 20.7 µM (≈ 8.65 µg/mL). Moreover, in [8], the remaining at 1 h, 5 µM stood at 100%. In data set [12], this compound showed a clearance of 0.833 mL/min/kg. The Vd in data set [13] was 0.4 L/kg. For the same compound, in data set [14], the “inhibition (INH)” value is reported as 100%. For the same compound, the inhibition entry in data set [18] and in data set [19] was “Active” each time.

Turning to `CN(CC1CCOCC1)c1ncnc2[nH]c(-c3ccc(CO)cc3)nc12`, the IC50 in [2] was determined as 83 nM; with BaF3 it was 3100 nM. In addition, the solubility kinetic at […], 500 µM in data set [3] was found to be 55.4 µM (≈ 19.6 µg/mL). The CLint in data set [6] worked out at 58.7 µL/min/mg; in data set [4], 15.8 µL/min/mg. The fraction unbound at 6 h, 5 µM in data set [7] was 0.44. For the same compound, the results for the remaining at 1 h, 5 µM in data set [8] and in [9] were 100% and 83%, respectively. Further, the hepatocyte CLint at 3 µM in data set [10] is 148 µL/min/1e6 cells. Further, the half-life in data set [11] is 24 min. For the same compound, in data set [12] (iv, 1 mg/kg, 8 h), the CL worked out at 3300 mL/min/kg. For the same compound, the Vd in data set [13] worked out at 80 L/kg. Further, in [14], the “inhibition (INH)” value was determined as 100%. Moreover, the Kd in data set [15] worked out at 4.5 nM; in data set [16] it was 80 nM. Also, the inhibition entry in data set [18] and in data set [19] was “Active” each time.

On to `Cc1cccc(CN(C)c2ncnc3[nH]c(-c4ccc(CO)cc4)nc23)c1`, for which the IC50 in [1] came out at 1.3 nM.

With `CN(Cc1ccccc1)c1ncnc2[nH]c(-c3ccc(CO)cc3)nc12`, the figures for the concentration for half-maximal inhibition (IC50) in data set [2] and in data set [20] were 330 nM and 109 nM, respectively. Besides, the fold change (FC) in data set [5] was 2.9. In addition, the CLint came to 57.8 µL/min/mg in data set [6] and 14.4 µL/min/mg in data set [4].

Consider `CN1CCCC(CN(C)c2ncnc3[nH]c(-c4ccc(CO)cc4)nc23)C1` (stereo unspecified), for which, in [2], the IC50 was over 300 nM. In addition, in data set [3], the solubility kinetic at […], 500 µM was found to be 469 µM (≈ 172 µg/mL). Further, the CLint in data set [4] is 3.6 µL/min/mg.

Consider `CN(Cc1ccncc1)c1ncnc2[nH]c(-c3ccc(CO)cc3)nc12`, for which the half-inhibitory concentration (IC50) in data set [1] is 2.2 nM.

Regarding `CN(Cc1ccccc1)c1ncnc2[nH]c(-c3ccccc3)nc12`, the IC50 in data set [1] was 2.7 nM.

Consider `Cc1ccc(CN(C)c2ncnc3[nH]c(-c4ccc(CO)cc4)nc23)cc1`, for which, in data set [1], the IC50 was 11 nM.

`CN(CC1CCOC1)c1ncnc2[nH]c(-c3ccc(CO)cc3)nc12` (stereo unspecified): in [2], the IC50 is over 300 nM. Also, the solubility kinetic at […], 500 µM in [3] worked out at 131 µM (≈ 44.5 µg/mL). Moreover, the CLint in [4] was determined as 20.1 µL/min/mg.

Take `CN(CC1CCCO1)c1ncnc2[nH]c(-c3ccc(CO)cc3)nc12` (stereo unspecified): in [2], the half-maximal inhibitory concentration (IC50) was over 300 nM. The solubility kinetic at […], 500 µM in data set [3] came to 39.7 µM (≈ 13.5 µg/mL). The CLint in [4] was 33.2 µL/min/mg.

Take `CN(Cc1ccccn1)c1ncnc2[nH]c(-c3ccc(CO)cc3)nc12`: the half-maximal inhibitory concentration (IC50) in [1] came out at 7.2 nM.
